Measured values from patent publication US5393897A, “Isolation and structure of spongistatins 5,7,8 and 9” (Arizona Board of Regents acting on behalf of Arizona State …, priority 1993, dated 1995).
Converted amounts (≈) assume the structure as drawn. Read-outs that look alike come from different tables or passages of the source.

Key:
Type in all cases: cell-based
[1] = system: P388 lymphocytic leukemia cell line; assay: P388 lymphocytic leukemia cell line bioassay; conditions: Mus musculus, pure compound
[2] = system: OVCAR-4; assay: NCI cell line panel; conditions: Homo sapiens, Ovarian Cancer, read-out: Log10 GI50 (converted)
Text: (§1) Only two hundred years ago, many diseases ravaged humankind. Many of these diseases now have been controlled or eradicated. In the development of the means to treat or control these diseases, work with the appropriate common experimental animals was of critical importance. With the various types of cancers, and with the HIV virus, such work is presently ongoing. The research for the treatment of various types of cancer is coordinated in the United States by the National Cancer Institute (NCI). NCI, as a government entity, has been charged with assisting anti-cancer research. To establish whether a substance has anti-cancer activity, NCI has established a variety of protocols, one of which involves testing the candidate substance against a cell line panel containing 60 human tumor cell lines. This protocol has been verified and is generally accepted throughout the scientific community. This protocol and the established statistical means of evaluating the results obtained therefrom have been fully described in the literature. See Principles & Practice of Oncology PPO Updates, Volume 3, Number 10, October 1989, by Michael R. Boyd, M.D., Ph.D., for an in depth description of the test protocol. The statistical analysis is explained in "Display and Analysis of Patterns of Differential Activity of Drugs Against Human Tumor Cell Lines: Development of Means Graph and COMPARE Algorithm" Journal of the National Cancer Institute Reports Vol. 81, No. 14, Pg. 1088, Jul. 14, 1989, by K. D. Paull et al. Both of these references are incorporated herein by this reference thereto. The effectiveness and validity of the NCI in vitro protocol continues to be verified.

[3] = system: LOX IMVI; assay: NCI cell line panel; conditions: Homo sapiens, Melanoma
Text: as §1

[4] = system: OVCAR-3; assay: NCI cell line panel; conditions: Homo sapiens, Ovarian Cancer, read-out: Log10 GI50 (converted)
Text: as §1

[5] = system: OVCAR-5; assay: NCI cell line panel; conditions: Homo sapiens
Text: as §1

[6] = system: BT-549; assay: NCI cell line panel; conditions: Homo sapiens
Text: as §1

[7] = system: PC-3; assay: NCI cell line panel; conditions: Homo sapiens, Prostate Cancer; for GI50: read-out: Log10 GI50 (converted); for IC (TGI): read-out: Log10 TGI (converted)
Text: as §1

[8] = system: SK-OV-3; assay: NCI cell line panel; conditions: Homo sapiens
Text: as §1

[9] = system: IGROV1; assay: NCI cell line panel; conditions: Homo sapiens, IGROV-1, Ovarian Cancer; for GI50: read-out: Log10 GI50 (converted); for IC (TGI): read-out: Log10 TGI (converted)
Text: as §1

[10] = system: UO-31; assay: NCI cell line panel; conditions: Homo sapiens
Text: as §1

[11] = system: SF-295; assay: NCI cell line panel; conditions: Homo sapiens
Text: as §1

[12] = system: K-562; assay: NCI cell line panel; conditions: Homo sapiens, K562; Leukemia; read-out: Log10 GI50 (converted)
Text: as §1

[13] = system: HOP-92; assay: NCI cell line panel; conditions: Homo sapiens, Non-Small Cell Lung Cancer, read-out: Log10 GI50 (converted)
Text: as §1

[14] = system: SNB-19; assay: NCI cell line panel; conditions: Homo sapiens; for IC (TGI): read-out: Log10 TGI (converted)
Text: as §1

[15] = system: HCC-2998; assay: NCI cell line panel; conditions: Homo sapiens, Colon Cancer, read-out: Log10 GI50 (converted)
Text: as §1

[16] = system: MCF7/ADR-RES; assay: NCI cell line panel; conditions: Homo sapiens, Breast Cancer; for GI50: read-out: Log10 GI50 (converted)
Text: as §1

[17] = system: EKVX; assay: NCI cell line panel; conditions: Homo sapiens; for GI50: read-out: Log10 GI50 (converted)
Text: as §1

[18] = system: 786-0; assay: NCI cell line panel; conditions: Homo sapiens, Renal Cancer; for GI50: read-out: Log10 GI50 (converted); for IC (TGI): read-out: Log10 TGI (converted)
Text: as §1

[19] = system: UACC-257; assay: NCI cell line panel; conditions: Homo sapiens, Melanoma, read-out: Log10 GI50 (converted)
Text: as §1

[20] = system: HCT-116; assay: NCI cell line panel; conditions: Homo sapiens, Colon Cancer, read-out: Log10 GI50 (converted)
Text: as §1

[21] = system: UACC-62; assay: NCI cell line panel; conditions: Homo sapiens, UACC-62, read-out: Log10 GI50 (converted)
Text: as §1

[22] = system: MDA-N; assay: NCI cell line panel; conditions: Homo sapiens, Breast Cancer, read-out: Log10 GI50 (converted)
Text: as §1

[23] = system: MALME-3M; assay: NCI cell line panel; conditions: Homo sapiens, read-out: Log10 GI50 (converted)
Text: as §1

[24] = system: SK-MEL-28; assay: NCI cell line panel; conditions: Homo sapiens, SK-MEL-28, read-out: Log10 GI50 (converted)
Text: as §1

[25] = system: SK-MEL-5; assay: NCI cell line panel; conditions: Homo sapiens, Melanoma, read-out: Log10 GI50 (converted)
Text: as §1

[26] = system: NCI-H460; assay: NCI cell line panel; conditions: Homo sapiens
Text: as §1

[27] = system: SW-620; assay: NCI cell line panel; conditions: Homo sapiens, SW-620, read-out: Log10 GI50 (converted)
Text: as §1

[28] = system: KM12; assay: NCI cell line panel; conditions: Homo sapiens, KM12, read-out: Log10 GI50 (converted)
Text: as §1

[29] = system: M14; assay: NCI cell line panel; conditions: Homo sapiens, Melanoma, read-out: Log10 GI50 (converted)
Text: as §1

[30] = system: HT29; assay: NCI cell line panel; conditions: Homo sapiens, HT-29; Colon Cancer; read-out: Log10 GI50 (converted)
Text: as §1

[31] = read-out: Log10 TGI (converted)

## C=C(Cl)/C=C/C(O)CC(=C)CC1OC2C(C)C(OC(=O)CC3CC(O)CC4(CC(C)(O)CC(C=C5COC(C(C)C(=O)CC6CC(OC)CC7(CC(O)CC(/C=C\CCCC8OC(O)(CC(O)C8C)C2O)O7)O6)C5C)O4)O3)C1O (centres unmarked) [spongistatin 5]
[1]; PS (P388), read-out: ED50 (the source's name)
  IC50: 0.066 ng/mL (≈ 0.058 nM)
[2]
  GI50: 14.1 nM
[3]; [31]
  IC (TGI): 11 nM
[4]
  GI50: 0.0151 nM
[5]; OVCAR-5, read-out: Log10 GI50 (converted)
  GI50: 4.07 nM
[6]; BT-549, read-out: Log10 GI50 (converted)
  GI50: 0.219 nM
[7]
  GI50: 0.0151 nM
  IC (TGI): 100 nM
[8]; SK-OV-3, Ovarian Cancer, read-out: Log10 GI50 (converted)
  GI50: 0.191 nM
[9]
  GI50: 0.141 nM
  IC (TGI): 95.5 nM
[10]; UO-31, read-out: Log10 GI50 (converted)
  GI50: 0.427 nM
[11]; SF-295, CNS Cancer, read-out: Log10 GI50 (converted)
  GI50: 0.011 nM
[12]
  GI50: 0.1 nM
[13]
  GI50: 1.41 nM
[14]; SNB-19, read-out: Log10 GI50 (converted)
  GI50: 0.407 nM
[14]; SNB-19, CNS Cancer
  IC (TGI): 100 nM
[15]
  GI50: 0.0631 nM
[16]
  GI50: 0.912 nM
[17]
  GI50: 0.182 nM
[18]
  GI50: 0.0251 nM
  IC (TGI): 1.2 nM

## C=C/C=C/C(O)CC(=C)CC1OC2C(C)C(OC(=O)CC3CC(O)CC4(CC(C)(O)CC(C=C5COC(C(C)C(=O)CC6CC(OC)CC7(CC(O)CC(/C=C\CCCC8OC(O)(CC(O)C8C)C2O)O7)O6)C5C)O4)O3)C1O (centres unmarked) [spongistatin 7]
[1]; P388, unit inferred, read-out: P388 ED50
  IC50: 2.6 ng/mL (≈ 2.36 nM)
[19]
  GI50: 14.1 nM
[20]
  GI50: 0.288 nM
[21]
  GI50: 0.309 nM
[2]
  GI50: 24 nM
[3]; read-out: Log10 GI50 (converted)
  GI50: 0.468 nM
[22]
  GI50: 0.0151 nM
[23]
  GI50: 0.398 nM
[4]
  GI50: 0.0759 nM
[24]
  GI50: 1.29 nM
[5]; OVCAR-5, Ovarian Cancer, read-out: Log10 GI50 (converted)
  GI50: 20.9 nM
[25]
  GI50: 0.0851 nM
[6]; BT-549, Breast Cancer, read-out: Log10 TGI (converted)
  IC (TGI): 100 nM
[7]
  GI50: 0.372 nM
  IC (TGI): 52.5 nM
[8]; SK-OV-3, read-out: Log10 GI50 (converted)
  GI50: 1 nM
[26]; NCI-H460, read-out: Log10 GI50 (converted)
  GI50: 2.09 nM
[26]; NCI-H460, Non-Small Cell Lung Cancer, read-out: Log10 TGI (converted)
  IC (TGI): 100 nM
[9]
  GI50: 0.617 nM
  IC (TGI): 67.6 nM
[10]; UO-31, Renal Cancer, read-out: Log10 GI50 (converted)
  GI50: 24 nM
[11]; SF-295, read-out: Log10 GI50 (converted)
  GI50: 0.407 nM
[27]
  GI50: 0.389 nM
[12]
  GI50: 0.151 nM
[13]
  GI50: 5.25 nM
[14]; SNB-19, CNS Cancer, read-out: Log10 GI50 (converted)
  GI50: 8.32 nM
[14]; SNB-19, CNS Cancer
  IC (TGI): 100 nM
[28]
  GI50: 0.219 nM
[15]
  GI50: 1.41 nM
[16]
  GI50: 77.6 nM
[16]; [31]
  IC (TGI): 100 nM
[17]; Non-Small Cell Lung Cancer
  GI50: 41.7 nM
[17]; Non-Small Cell Lung Cancer, read-out: Log10 TGI (converted)
  IC (TGI): 100 nM
[29]
  GI50: 0.49 nM
[30]
  GI50: 1.51 nM
[18]
  GI50: 2 nM
  IC (TGI): 100 nM
